System: SEM cells
Assay: cell viability relative to DMSO control; higher = less cytotoxic
Conditions: 48 h
In short: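 Viability is a per-plate percentage relative to DMSO wells, with cell-free wells as background. CellTiter-Glo One luminescence was read after 48 h at 37°C on 1536-well plates (5 μl) of NOMO1 or SEM (500 cells/well) or P12-Ichikawa (1000 cells/well) leukemia cells. The cells had been adapted for at least four passages in each medium and pin-dosed with library compounds in DMSO from 47 μM to 0.79 nM in 11 threefold steps.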

[1] = HPLM + 10% dialyzed FBS, 0.000781 µM
[2] = HPLM + 10% dialyzed FBS, 0.00234 µM
[3] = HPLM + 10% dialyzed FBS, 0.00702 µM
[4] = HPLM + 10% dialyzed FBS, 0.0211 µM
[5] = HPLM + 10% dialyzed FBS, 0.0632 µM
[6] = HPLM + 10% dialyzed FBS, 0.19 µM
[7] = HPLM + 10% dialyzed FBS, 0.569 µM
[8] = HPLM + 10% dialyzed FBS, 1.71 µM
[9] = HPLM + 10% dialyzed FBS, 5.12 µM
[10] = HPLM + 10% dialyzed FBS, 15.4 µM
[11] = HPLM + 10% dialyzed FBS, 46.1 µM
[12] = RPMI 5 mM glucose + 10% FBS, 0.000781 µM
[13] = RPMI 5 mM glucose + 10% FBS, 0.00234 µM
[14] = RPMI 5 mM glucose + 10% FBS, 0.00702 µM
[15] = RPMI 5 mM glucose + 10% FBS, 0.0211 µM
[16] = RPMI 5 mM glucose + 10% FBS, 0.0632 µM
[17] = RPMI 5 mM glucose + 10% FBS, 0.19 µM
[18] = RPMI 5 mM glucose + 10% FBS, 0.569 µM
[19] = RPMI 5 mM glucose + 10% FBS, 1.71 µM
[20] = RPMI 5 mM glucose + 10% FBS, 5.12 µM
[21] = RPMI 5 mM glucose + 10% FBS, 15.4 µM
[22] = RPMI 5 mM glucose + 10% FBS, 46.1 µM
[23] = RPMI 5 mM glucose + 10% dialyzed FBS, 0.000781 µM
[24] = RPMI 5 mM glucose + 10% dialyzed FBS, 0.00234 µM
[25] = RPMI 5 mM glucose + 10% dialyzed FBS, 0.00702 µM
[26] = RPMI 5 mM glucose + 10% dialyzed FBS, 0.0211 µM
[27] = RPMI 5 mM glucose + 10% dialyzed FBS, 0.0632 µM
[28] = RPMI 5 mM glucose + 10% dialyzed FBS, 0.19 µM
[29] = RPMI 5 mM glucose + 10% dialyzed FBS, 0.569 µM
[30] = RPMI 5 mM glucose + 10% dialyzed FBS, 1.71 µM
[31] = RPMI 5 mM glucose + 10% dialyzed FBS, 5.12 µM
[32] = RPMI 5 mM glucose + 10% dialyzed FBS, 15.4 µM
[33] = RPMI 5 mM glucose + 10% dialyzed FBS, 46.1 µM

`O=c1[nH]cnc2c1ncn2[C@H]1CC[C@@H](CO)O1` was tested, and the cell viability [1] was 85.7%, the cell viability [2] was 97% and the cell viability [3] was 104%. For the same molecule, the cell viability [4] was 102%, the cell viability [5] was 88.3% and the cell viability [6] was 101%. It also gave a cell viability [7] of 102%, a cell viability [8] of 110% and a cell viability [9] of 99.8%. For the same molecule, the cell viability [10] was 90.5%, the cell viability [11] was 69.4% and the cell viability [12] was 85.1%. For the same molecule, the cell viability [13] was 86.6%, the cell viability [14] was 98% and the cell viability [15] was 95.8%. It also gave a cell viability [16] of 90.8%, a cell viability [17] of 86.4% and a cell viability [18] of 99.9%. For the same molecule, the cell viability [19] was 94%, the cell viability [20] was 83.4% and the cell viability [21] was 60.8%. It also gave a cell viability [22] of 47.4%, a cell viability [23] of 77.6% and a cell viability [24] of 86.1%. The cell viability [25] was 84.3%, the cell viability [26] was 85.2% and the cell viability [27] was 77.7%. It also gave a cell viability [28] of 97.6%, a cell viability [29] of 105% and a cell viability [30] of 92.7%. The cell viability [31] was 99.5%, the cell viability [32] was 67.8% and the cell viability [33] was 70.3%.

In the case of `O=C1NC(O)CCN1[C@@H]1O[C@H](CO)[C@@H](O)[C@H]1O` (stereo not given in full), the cell viability [12] is reported as 114%, the cell viability [13] is reported as 125% and the cell viability [14] is reported as 123%. For the same molecule, the cell viability [15] was 111%, the cell viability [16] was 114% and the cell viability [17] was 125%. It also gave a cell viability [18] of 117%, a cell viability [19] of 111% and a cell viability [20] of 115%. The cell viability [21] was 134% and the cell viability [22] was 122%.

`N[C@@H](CC(=O)N1CCn2c(nnc2C(F)(F)F)C1)Cc1cc(F)c(F)cc1F` gave a cell viability [1] of 111%, a cell viability [2] of 113% and a cell viability [3] of 110%. For the same molecule, the cell viability [4] was 118%, the cell viability [5] was 105% and the cell viability [6] was 105%. For the same molecule, the cell viability [7] was 99.8%, the cell viability [8] was 117% and the cell viability [9] was 107%. The cell viability [10] was 41.9%, the cell viability [11] was 93.3% and the cell viability [12] was 100%. For the same molecule, the cell viability [13] was 104%, the cell viability [14] was 98.1% and the cell viability [15] was 102%. For the same molecule, the cell viability [16] was 132%, the cell viability [17] was 113% and the cell viability [18] was 106%. For the same molecule, the cell viability [19] was 112%, the cell viability [20] was 109% and the cell viability [21] was 50%. The cell viability [22] was 96.4%, the cell viability [23] was 96.9% and the cell viability [24] was 118%. For the same molecule, the cell viability [25] was 103%, the cell viability [26] was 97.4% and the cell viability [27] was 103%. The cell viability [28] was 108%, the cell viability [29] was 96.8% and the cell viability [30] was 98.8%. The cell viability [31] was 92.3%, the cell viability [32] was 40.1% and the cell viability [33] was 98.6%.

`CC(NCc1ccc2c(c1)[nH]/c(=N\C(=O)c1ccc(-c3cn[nH]c3)s1)n2CC(C)(C)O)C(C)(C)C` (stereo not given) gave a cell viability [1] of 112%, a cell viability [2] of 89.6% and a cell viability [3] of 62.7%. It also gave a cell viability [4] of 52.4%, a cell viability [5] of 47.7% and a cell viability [6] of 41%. For the same molecule, the cell viability [7] was 24.9%, the cell viability [8] was 10.9% and the cell viability [9] was 8.32%. The cell viability [10] was 2.2%, the cell viability [11] was 2.08% and the cell viability [12] was 96.7%. The cell viability [13] was 112%, the cell viability [14] was 76.3% and the cell viability [15] was 58.5%. The cell viability [16] was 48%, the cell viability [17] was 36.5% and the cell viability [18] was 31.3%. The cell viability [19] was 14.9%, the cell viability [20] was 4.21% and the cell viability [21] was 1.66%. For the same molecule, the cell viability [22] was 1.98%, the cell viability [23] was 122% and the cell viability [24] was 85.4%. For the same molecule, the cell viability [25] was 79.8%, the cell viability [26] was 42.4% and the cell viability [27] was 45.7%. It also gave a cell viability [28] of 41.5%, a cell viability [29] of 27.2% and a cell viability [30] of 16.2%. For the same molecule, the cell viability [31] was 6.16%, the cell viability [32] was 1.94% and the cell viability [33] was 1.53%.

Source: the supplement of paper PMC11451515
